Measurements: PMC3382112 (Chemistry, an Asian journal, 2012)

Legend:
HLA-DQ2 = assay: DQ2-peptide binding; parameters: species or system human; conditions: single peptide binding; thrombin treated DQ2–αI; DQ2:peptide = 10:1 ([DQ2]=6 μM, [peptide]=0.6 μM); 48 h at 37 °C; phosphate buffer pH 7.3; CE-FL peak areas; error less than 4% in multiple repeats
DQ2–CLIP complex = DQ2–CLIP complex (Homo sapiens, UniProt P01909+P01920); assay: CLIP pre-conditioned peptide exchange assay; type: binding; conditions: CE-FL; for binding to DQ2–CLIP preparation / displacement of pre-bound CLIP peptide: pH 5.5, peptide:DQ2 5:1 ([Cy5-20-mer]=35 μM; [DQ2-CLIP complex]=7 μM)
Sequence of DQ2–CLIP complex (P01920 33-230 limits assumed, other chains not shown): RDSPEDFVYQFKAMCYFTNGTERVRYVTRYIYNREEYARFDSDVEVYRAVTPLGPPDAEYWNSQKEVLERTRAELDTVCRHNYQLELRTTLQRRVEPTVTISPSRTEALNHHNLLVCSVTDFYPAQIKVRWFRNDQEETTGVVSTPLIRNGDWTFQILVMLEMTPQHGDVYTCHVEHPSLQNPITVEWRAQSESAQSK

Row | SDQ2-peptide / Stotal peptide (%) (binding capacity, fraction of bound peptide) (HLA-DQ2) | binding to DQ2–CLIP preparation / displacement of pre-bound CLIP peptide (DQ2–CLIP complex) | effect on dissociation kinetics of CLIP peptide from DQ2–CLIP complex (DQ2–CLIP complex; pH 7.3, with 20-mer (5:1, [Cy5-20-mer]=35 μM; [DQ2-CLIP complex]=7 μM) versus absence of 20-mer) | Substance
1 | 64 | not at pH 5.5 | did not affect the dissociation kinetics | Cy5-LQLQPFPQPELPYPQPELPY [Cy5-20-mer]
2 |  | unable to bind |  | Cy5-AAIAAVKEEAF [reference compound]
